How the values were obtained:
[1] = tested on: P815 mastocytoma target cells; assay: Macrophage-mediated cytotoxicity ([3H]thymidine release) after treating thioglycolate-elicited macrophages
Method: Macrophage-mediated cytotoxicity: Cytotoxicity was determined using a [3H] thymidine release assay. Thioglycolate-elicited macrophages were plated in 96-well flat-bottom tissue culture plates (Costar, Cambridge, Mass.) at 4×10^5 and 1×10^4 macrophage per well. […] After 24 hours, the plates were washed three times and [3H] thymidine labelled P815 tumor target cells (1×10^4) were added to each well. The total assay volume was 250 μl in DMEM with 10% FCS and the plates were incubated an additional 24 hours. After incubation, the microplates were centrifuged for 2 minutes at 250×g and a 125 μl aliquot of supernatant was removed and counted by liquid […]. Total incorporation of radioactivity was determined by adding 1×10^4 cells to 2 ml of Beckman Redissolve scintillation cocktail.
The percent specific release was calculated. [formula]
All samples were plated in triplicate and the data presented as the mean ±S.D. of triplicates.

[2] = tested on: thioglycolate-elicited macrophages, thymocytes and X63-Ag8.653 myeloma cells; assay: Cell specificity of [125I]acetyl-LDL binding; parameters: species or system mouse
Method: Thiglycolate-elicited macrophages, thymocytes and X63-Ag8.653 myeloma cells were incubated with [^125 I] acetyl-LDL at 4 degrees centigrade in six cell tissue culture plates at […]. After 2 hours, the cells were washed five times, then lysed in 0.05% Triton X-100 and the amount of [^125 I] acetyl-LDL bound was determined.

[3] = tested on: thioglycolate-elicited macrophages; assay: Fluorescent binding and uptake of acetyl-LDL:MTP-PE-DiI by macrophages; type: cell-based, mouse; settings: 30-fold excess of competitor; 30 μg acetyl-LDL:MTP-PE-DiI; 37°
Method: The binding and uptake of acetyl-LDL:MTP-PE-DiI was carried out at 37 degrees centigrade and the fluorescence intensity of cell-associated DiI recorded. The μg acetyl-LDL:MTP-PE-DiI bound was determined by knowing the quantity of DiI associated with the complex (1.34±0.76 nmol DiI/mg acetyl-LDL protein). The data points represent an average of three separate experiments.
Insert: Uptake of 30 μg of acetyl-LDL:MTP-PE-DiI and in the presence of a 30-fold excess of acetyl-LDL (a) a 30-fold excess of LDL (b) or a 30-fold excess of liposomes (c).

[4] = tested on: macrophages; settings: reference 41; cited from earlier work
[5] = tested on: B16F10 melanoma target cells; assay: Macrophage-mediated cytostasis ([3H]thymidine incorporation) after treating thioglycolate-elicited macrophages; settings: for % Cytostasis: effector:target 10:1
Method: ^(2) Thioglycolate-elicited macrophages were treated with different
concentrations of the complex for 24 hours, unbound complex was washed
away and B16F10 melanoma cells were added. After 24 hours, the cultures
were pulsed with [3H]thymidine and harvested after 18 hours
(effector:target ratio, 10:1).
Macrophage-mediated Cytostasis: Cytostatic activity was determined using a (^3 H) Thymidine (New England Nuclear Corp) incorporation technique (64). […] After 24 hours, the cells were washed twice with warm DMEM and cultured in DMEM (10% FCS), with 1×10^5 B16F10 melanoma target cells for 24 hours. The cells were then pulsed for 24 hours with 1 uCi of (^3 H) thymidine. Cells were harvested using a MASH cell harvester and assayed with a liquid scintillation counter. The results were expressed as a percent inhibition of (^3 H) thymidine incorporation into the B16F10 target cells (such as % cytostasis). [formula]

Substance	Percent Cytotoxicity ([1]; effector to target cell ratio 1:1, same amounts per well)	Percent Cytotoxicity ([1]; effector to target cell ratio 5:1, same amounts per well)	Percent Cytotoxicity ([1]; effector to target cell ratio 10:1, same amounts per well)	Percent Cytotoxicity ([1]; effector to target cell ratio 20:1, same amounts per well)	Percent Cytotoxicity ([1]; effector to target cell ratio 40:1, per well: complex 18.0 ug protein containing 3.6 ug MTP-PE, free MTP-PE 3.6 ug, acetyl-LDL 18.0 ug protein)	binding to myeloma cell line (B-lymphocyte) and thymocytes (T-lymphocytes) [2]	competition with uptake of DiI-labeled acetyl-LDL:MTP-PE complex [3]	rate of uptake and degradation by macrophages relative to LDL [4]	% Cytostasis ([5]; acetyl-LDL 6.25 μg protein/ml (MTP-PE 0.62 μg/ml in complex, 0.0 alone), 24 hours)	% Cytostasis (Complex + Excess Liposomes) ([5]; acetyl-LDL 6.25 μg protein/ml (MTP-PE 0.62 or 0.0 μg/ml) in presence of excess liposomes 1.2 mg lipid/ml)	% Cytostasis ([5]; acetyl-LDL 12.5 μg protein/ml (MTP-PE 1.3 μg/ml in complex, 0.0 alone), 24 hours)	% Cytostasis (Complex + Excess Liposomes) ([5]; acetyl-LDL 12.5 μg protein/ml (MTP-PE 1.3 or 0.0 μg/ml) in presence of excess liposomes 1.2 mg lipid/ml)	% Cytostasis ([5]; acetyl-LDL 25 μg protein/ml (MTP-PE 2.5 μg/ml in complex, 0.0 alone), 24 hours)	% Cytostasis (Complex + Excess Liposomes) ([5]; acetyl-LDL 25 μg protein/ml (MTP-PE 2.5 or 0.0 μg/ml) in presence of excess liposomes 1.2 mg lipid/ml)	% Cytostasis ([5]; acetyl-LDL 50 μg protein/ml (MTP-PE 5.0 μg/ml in complex, 0.0 alone), 24 hours)	% Cytostasis (Complex + Excess Liposomes) ([5]; acetyl-LDL 50 μg protein/ml (MTP-PE 5.0 or 0.0 μg/ml) in presence of excess liposomes 1.2 mg lipid/ml)	% Cytostasis ([5]; acetyl-LDL 100 μg protein/ml (MTP-PE 9.9 μg/ml in complex, 0.0 for acetyl-LDL alone), macrophages treated 24 hours)	% Cytostasis (Complex + Excess Liposomes) ([5]; acetyl-LDL 100 μg protein/ml (MTP-PE 9.9 or 0.0 μg/ml) in presence of excess liposomes 1.2 mg lipid/ml)
Acetyl-LDL: human plasma LDL exhaustively acetylated with acetic anhydride at apoprotein B lysine residues; the carrier alone	0.5 ± 1%	4.5 ± 4%	4 ± 2%	6 ± 2%	3 ± 3%	only low levels of binding	effective competitive inhibitor	approximately twenty-fold greater	≤ 5%	≤ 5%	< 5%	≤ 5%	25 ± 12%	≤ 5%	< 5%	≤ 5%	< 5%	≤ 5%
LDL: native unmodified human plasma low density lipoprotein	–	–	–	–	–	–	negligible to moderate competition	–	–	–	–	–	–	–	–	–	–	–

— patent US5084441A, “Acetylated low density lipoproteins: a delivery system to phagocytic cells for stimulating immunologic response and host resistance” (priority 1988, dated 1992)
